pEC50, pKi: −log10 of the molar value.
Key:
EGFR T790M L858R = biological target: T1, EGFR T790M L858R (Homo sapiens, UniProt P00533, L858R/T790M); assay: EGFR T790M L858R biochemical assay (Caliper mobility shift); conditions: 5 μM ATP; apparent Ki (Morrison fit) converted by Cheng-Prusoff, Km of ATP 1.3 μM
T1 construct: purchased Life Technologies PV4879
Method: (§1) The exemplified compounds described herein were tested according to the assay below. The enzyme data reported in Tables 4-5 is generally a representative of multiple experiments.
Reactions proceed for 30 minutes at room temperature (22° C.) and are terminated with 80 mM 2,2′,2″,2′″-(ethane-1,2-diyldinitrilo)tetraacetic acid (EDTA). Product is detected using the Caliper mobility shift detection method where product and substrate are electrophoretically separated and measured.

EGFR del746-750 T790M = biological target: T2, EGFR del746-750 T790M (Homo sapiens, UniProt P00533, DEL746-750/T790M); assay: EGFR del746-750 T790M biochemical assay (Caliper mobility shift); conditions: 5 μM ATP; apparent Ki (Morrison fit) converted by Cheng-Prusoff, Km of ATP 2.1 μM; read-out: EGFR(T790M/d746-750) Ki
T2 construct: purchased Carna Biosciences 08-528
T2 sequence (P00533 with tags, fused parts or gaps DEL746-750/T790M limits assumed): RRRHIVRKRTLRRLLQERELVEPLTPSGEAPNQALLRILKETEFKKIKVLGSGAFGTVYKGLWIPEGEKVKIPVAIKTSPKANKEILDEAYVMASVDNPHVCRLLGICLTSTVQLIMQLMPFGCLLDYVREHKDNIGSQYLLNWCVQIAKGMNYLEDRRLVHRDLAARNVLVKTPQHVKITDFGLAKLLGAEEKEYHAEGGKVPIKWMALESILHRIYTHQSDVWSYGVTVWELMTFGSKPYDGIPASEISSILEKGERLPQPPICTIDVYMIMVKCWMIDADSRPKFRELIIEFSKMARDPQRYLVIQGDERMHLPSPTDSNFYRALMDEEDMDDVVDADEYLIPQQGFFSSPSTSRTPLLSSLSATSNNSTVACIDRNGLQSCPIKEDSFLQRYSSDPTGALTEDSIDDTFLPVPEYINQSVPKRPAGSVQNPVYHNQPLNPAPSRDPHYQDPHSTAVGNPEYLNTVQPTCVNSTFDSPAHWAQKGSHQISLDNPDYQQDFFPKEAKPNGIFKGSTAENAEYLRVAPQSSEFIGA
Method: as §1
Reactions proceed for 30 minutes at room temperature (22° C.) and are terminated with 80 mM 2,2′,2″,2″′-(ethane-1,2-diyldinitrilo)tetraacetic acid (EDTA). Product is detected using the Caliper mobility shift detection method where product and substrate are electrophoretically separated and measured.

[1] = biological target: T3, phosphor-EGFR in H1975(L585R/T790M) mutant EGFR expressing cells (Homo sapiens, UniProt P00533, L858R/T790M); assay: H1975 pEGFR MSD cellular assay; assay type: cell-based; conditions: NCI-H1975 cells, serum starved, 1 hour compound incubation, pEGFR Tyr1068 MSD; read-out: HI975 pEGFR EC50
T3 construct: host or cells: NCI-H1975
T3 sequence (P00533 25-1210 T790M/L858R): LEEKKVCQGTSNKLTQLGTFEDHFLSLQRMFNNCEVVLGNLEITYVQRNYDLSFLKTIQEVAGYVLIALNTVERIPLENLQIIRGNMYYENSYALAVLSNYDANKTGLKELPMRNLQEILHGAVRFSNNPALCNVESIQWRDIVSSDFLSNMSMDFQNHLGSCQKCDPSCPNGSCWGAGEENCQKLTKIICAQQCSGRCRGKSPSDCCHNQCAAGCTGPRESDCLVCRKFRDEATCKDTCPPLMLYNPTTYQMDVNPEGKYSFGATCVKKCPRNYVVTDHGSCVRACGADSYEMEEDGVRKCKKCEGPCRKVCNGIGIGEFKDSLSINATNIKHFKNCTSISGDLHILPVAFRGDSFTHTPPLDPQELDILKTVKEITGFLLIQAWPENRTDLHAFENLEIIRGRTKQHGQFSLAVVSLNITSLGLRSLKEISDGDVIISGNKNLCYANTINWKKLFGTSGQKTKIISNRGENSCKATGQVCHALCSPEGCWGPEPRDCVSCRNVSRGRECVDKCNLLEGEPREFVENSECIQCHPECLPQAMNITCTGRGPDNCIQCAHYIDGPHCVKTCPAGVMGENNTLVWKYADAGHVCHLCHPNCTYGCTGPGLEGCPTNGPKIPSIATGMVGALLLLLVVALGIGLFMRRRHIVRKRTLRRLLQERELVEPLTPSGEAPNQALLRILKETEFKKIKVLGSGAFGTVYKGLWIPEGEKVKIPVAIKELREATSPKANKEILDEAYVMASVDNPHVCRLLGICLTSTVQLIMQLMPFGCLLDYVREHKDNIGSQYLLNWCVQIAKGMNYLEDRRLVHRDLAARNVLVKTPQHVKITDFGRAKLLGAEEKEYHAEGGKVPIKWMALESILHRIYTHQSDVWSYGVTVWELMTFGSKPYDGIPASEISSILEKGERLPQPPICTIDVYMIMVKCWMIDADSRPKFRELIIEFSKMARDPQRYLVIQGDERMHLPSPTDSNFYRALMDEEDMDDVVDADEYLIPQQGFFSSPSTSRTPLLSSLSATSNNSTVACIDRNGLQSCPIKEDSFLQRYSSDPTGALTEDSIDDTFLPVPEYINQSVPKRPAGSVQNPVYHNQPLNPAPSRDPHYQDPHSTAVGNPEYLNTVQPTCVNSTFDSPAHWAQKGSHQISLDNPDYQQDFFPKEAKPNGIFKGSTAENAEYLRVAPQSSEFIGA
Method: H1975 pEGFR MSD Cellular Assays
These assays are intended for determining cellular. […] (Meso Scale Discovery Catalog# N31CB-1).
NCI-H1975 (ATCC Catalog# CRL-5908) cells are maintained in medium containing RPMI 1640, 10% FBS, 4 mM L-Glutamine, 1% Penicillin-Streptomycin, and 4.5 g/L Glucose. All cell culture reagents were purchased from Invitrogen/Gibco. Cells are cultured at 37° C. at 5% CO2 and split as recommended by ATCC.
Cell Plating and Serum Starvation:
H1975 cells are harvested and plated into sterile cell culture treated 384 well plates (Greiner catalog #781091) at a density of 30,000 cells/well in 50 ul culture medium and placed in a 37° C. at 5% CO2 incubator for six hours. After six hours, culture medium is aspirated and replaced with serum-free culture medium. Cells are then incubated with the serum-free medium overnight at 37° C. and 5% CO2.
The following day, test compounds are serially diluted in dimethyl sulfoxide (DMSO) and added to cells in serum free medium (final DMSO concentration 0.5%). Assay plates are then incubated for 1 hour at 37° C. and 5% CO2. Following 1 hour of compound incubation cells are then lysed and processed as per the MSD pEGFR assay kit protocol. Cell lysates are added to assay plates pre-coated with antibodies against phosphorylated EGFR. Phosphorylated EGFR in samples are allowed to bind to the capture antibodies overnight at 4° C. The detection antibody (anti-total EGFR, labeled with an electrochemiluminescent SULFO-TAG) is added to the bound lysate and incubated for 1 hour at room temperature. The MSD Read Buffer is added such that when a voltage is applied to the plate electrodes, the labels bound to the electrode surface emit light. The MSD Sector Instrument measures the intensity of the light, and quantitatively measures the amount of phosphorylated-EGFR in the sample. Percent inhibition of EGFR phosphorylation by varying concentrations of test compounds is calculated relative to untreated controls. EC50 values are calculated using the 4 parameter logistic nonlinear regression dose-response model.

[2] = test system: H1975 (EGFR T790M/L858R) cell proliferation; assay: H1975 proliferation assay (Cell Titer-Glo); assay type: cell-based; conditions: Homo sapiens, NCI-H1975, 72 h, NCI-H1975 cells, 72 hour incubation, read-out: H1975 antiproliferative EC50
Method: H1975 Proliferation Assays
All cell culture reagents were purchased from Invitrogen/Gibco. Cells are cultured at 37° C. at 5% CO2 and split as recommended by ATCC.

T1 sequence (P00533 25-1210 T790M/L858R): as above

Structure (SMILES)	pKi (EGFR T790M L858R)	pKi (EGFR del746-750 T790M)	pEC50 [1]	pEC50 [2]
CC(C)n1nc(NC(C)(C)C(N)=O)c2cnc(Nc3ccnc(N4CC[C@H](O)[C@H](F)C4)n3)cc21 (racemic) [Example 182, (±)-2-(6-(2-(cis-3-Fluoro-4-hydroxypiperidin-1-yl)pyrimidin-4-ylamino)-1-isopropyl-1H-pyrazolo[4,3-c]pyridin-3-ylamino)-2-methylpropanamide]	6.42	5.94		
CC[C@H](C)n1nc(N2CC[C@@H](O)C2)c2cnc(Nc3ccnc(N4CC[C@](C)(C(N)=O)C4)n3)cc21 (relative stereo) [Example 209, (S*)-1-(4-((1-((S*)-sec-Butyl)-3-((R)-3-hydroxypyrrolidin-1-yl)-1H-pyrazolo[4,3-c]pyridin-6-yl)amino)pyrimidin-2-yl)-3-methylpyrrolidine-3-carboxamide]	6.84	6.95		
CCC(C)n1nc(N2CC[C@@H](O)C2)c2cnc(Nc3ccnc(N4CCC5(CC4)CNC(=O)CO5)n3)cc21 (single isomer, unassigned) [Example 207, 9-(4-((1-((S*)-sec-Butyl)-3-((R)-3-hydroxypyrrolidin-1-yl)-1H-pyrazolo[4,3-c]pyridin-6-yl)amino)pyrimidin-2-yl)-1-oxa-4,9-diazaspiro[5.5]undecan-3-one]	6.33	5.97		
CC(C)n1nc(N)c2cnc(Nc3ccnc(-c4cnn(S(=O)(=O)C5CC5)c4)n3)cc21 [Example 45, N^6-(2-(1-(cyclopropylsulfonyl)-1H-pyrazol-4-yl)pyrimidin-4-yl)-1-isopropyl-1H-pyrazolo[4,3-c]pyridine-3,6-diamine]	9.10		7.20	6.61
CC(C)Nc1nn(C(C)C)c2cc(Nc3ccnc(-c4cnn(S(=O)(=O)C5CC5)c4)n3)ncc12 [Example 46, N^6-(2-(1-(cyclopropylsulfonyl)-1H-pyrazol-4-yl)pyrimidin-4-yl)-N^3,1-diisopropyl-1H-pyrazolo[4,3-c]pyridine-3,6-diamine]	8.57		6.81	6.02
CC(C)n1nc(NCCC(N)=O)c2cnc(Nc3ccnc(-c4cnn(S(=O)(=O)C5CC5)c4)n3)cc21 [Example 47, 3-(6-(2-(1-(cyclopropylsulfonyl)-1H-pyrazol-4-yl)pyrimidin-4-ylamino)-1-isopropyl-1H-pyrazolo[4,3-c]pyridin-3-ylamino)propanamide]	9.10		6.06	5.40
CC(C)n1nc(NCC(N)=O)c2cnc(Nc3ccnc(-c4cnn(S(=O)(=O)C5CC5)c4)n3)cc21 [Example 48, 2-(6-(2-(1-(cyclopropylsulfonyl)-1H-pyrazol-4-yl)pyrimidin-4-ylamino)-1-isopropyl-1H-pyrazolo[4,3-c]pyridin-3-ylamino)acetamide]	9.22		5.83	5.26
CC(C)n1nc(N(C)CC(O)CO)c2cnc(Nc3ccnc(-c4cnn(S(=O)(=O)C5CC5)c4)n3)cc21 (centres unmarked) [Example 49, 3-((6-(2-(1-(cyclopropylsulfonyl)-1H-pyrazol-4-yl)pyrimidin-4-ylamino)-1-isopropyl-1H-pyrazolo[4,3-c]pyridin-3-yl)(methyl)amino)propane-1,2-diol]	9.15		7.01	6.02
CC(C)c1nn(C(C)C)c2cc(Nc3ccnc(-c4cnn(S(=O)(=O)C5CC5)c4)n3)ncc12 [Example 50, N-(2-(1-(cyclopropylsulfonyl)-1H-pyrazol-4-yl)pyrimidin-4-yl)-1,3-diisopropyl-1H-pyrazolo[4,3-c]pyridin-6-amine]	7.63		5.62	5.43
CC(C)n1nc(N2CCOCC2)c2cnc(Nc3ccnc(-c4cnn(S(=O)(=O)C5CC5)c4)n3)cc21 [Example 51, N-(2-(1-(cyclopropylsulfonyl)-1H-pyrazol-4-yl)pyrimidin-4-yl)-1-isopropyl-3-morpholino-1H-pyrazolo[4,3-c]pyridin-6-amine]	8.72		7.13	6.57
CC(C)n1nc(NC2CCOCC2)c2cnc(Nc3ccnc(-c4cnn(S(=O)(=O)C5CC5)c4)n3)cc21 [Example 52, N^6-(2-(1-(cyclopropylsulfonyl)-1H-pyrazol-4-yl)pyrimidin-4-yl)-1-isopropyl-N^3-(tetrahydro-2H-pyran-4-yl)-1H-pyrazolo[4,3-c]pyridine-3,6-diamine]	8.66		7.05	5.95
CC(C)n1nc(N2CC(C(N)=O)C2)c2cnc(Nc3ccnc(-c4cnn(S(=O)(=O)C5CC5)c4)n3)cc21 [Example 55, 1-(6-(2-(1-(cyclopropylsulfonyl)-1H-pyrazol-4-yl)pyrimidin-4-ylamino)-1-isopropyl-1H-pyrazolo[4,3-c]pyridin-3-yl)azetidine-3-carboxamide]	> 9.22		6.84	6.03
CC(C)n1nc(N2CC(C(=O)N(C)C)C2)c2cnc(Nc3ccnc(N4CCC(O)C(C)(C)C4)n3)cc21 (centres unmarked) [Example 56, 1-(6-(2-(4-hydroxy-3,3-dimethylpiperidin-1-yl)pyrimidin-4-ylamino)-1-isopropyl-1H-pyrazolo[4,3-c]pyridin-3-yl)-N,N-dimethylazetidine-3-carboxamide]	8.92		7.51	6.46
CC(C)n1nc(N2CC(C(=O)N(C)C)C2)c2cnc(Nc3ccnc(-c4cnn(S(=O)(=O)C5CC5)c4)n3)cc21 [Example 57, 1-(6-(2-(1-(cyclopropylsulfonyl)-1H-pyrazol-4-yl)pyrimidin-4-ylamino)-1-isopropyl-1H-pyrazolo[4,3-c]pyridin-3-yl)-N,N-dimethylazetidine-3-carboxamide]	> 9.22		7.74	6.80
CC(C)n1nc(N2CC[C@H](CO)C2)c2cnc(Nc3ccnc(-c4cnn(S(=O)(=O)C5CC5)c4)n3)cc21 [Example 58, (S)-(1-(6-(2-(1-(cyclopropylsulfonyl)-1H-pyrazol-4-yl)pyrimidin-4-ylamino)-1-isopropyl-1H-pyrazolo[4,3-c]pyridin-3-yl)pyrrolidin-3-yl)methanol]	8.92		8.03	6.86
CC(C)n1nc(NCC(C)(C)O)c2cnc(Nc3ccnc(-c4cnn(S(=O)(=O)C5CC5)c4)n3)cc21 [Example 61, 1-(6-(2-(1-(cyclopropylsulfonyl)-1H-pyrazol-4-yl)pyrimidin-4-ylamino)-1-isopropyl-1H-pyrazolo[4,3-c]pyridin-3-ylamino)-2-methylpropan-2-ol]	9.00		7.16	5.92
CC(C)Oc1nn(C(C)C)c2cc(Nc3ccnc(-c4cnn(S(=O)(=O)C5CC5)c4)n3)ncc12 [Example 62, N-(2-(1-(cyclopropylsulfonyl)-1H-pyrazol-4-yl)pyrimidin-4-yl)-3-isopropoxy-1-isopropyl-1H-pyrazolo[4,3-c]pyridin-6-amine]	7.92		6.34	5.45
COCC1CN(c2nn(C(C)C)c3cc(Nc4ccnc(-c5cnn(S(=O)(=O)C6CC6)c5)n4)ncc23)C1 [Example 152, N-(2-(1-(Cyclopropylsulfonyl)-1H-pyrazol-4-yl)pyrimidin-4-yl)-1-isopropyl-3-(3-(methoxymethyl)azetidin-1-yl)-1H-pyrazolo[4,3-c]pyridin-6-amine]		9.10		6.67
